Patent US6372717B1, “Synthetic peptides and their use in cosmetic or dermopharmaceutical compositions” (Sederma S.A., priority 1999, dated 2002)

Test system: human skin
Experiment: activity by topical application
Type: in vivo
From the text: The object of the present invention is the discovery that this peptide, and above all the lipophile derivatives of the peptide, have a calming, antalgic activity when applied to the human skin in a suitable cosmetic or dermopharmaceutical preparation.

N=C(N)NCCC[C@H](NC(=O)[C@@H](N)Cc1ccc(O)cc1)C(=O)O [H-L-Tyr-L-Arg-OH]
activity by topical application: only a slight activity
